Measured values reported in patent US6444668B1 (Wyeth, priority 1999, dated 2002).

SMILES	melting point
CC1(C)OC(=O)Nc2ccc(-c3cccc(C#C[Si](C)(C)C)c3)cc21	240 to 242 °C
CC1(C)OC(=O)Nc2ccc(-c3cc([N+](=O)[O-])cc([N+](=O)[O-])c3)cc21	297 to 298 °C
COc1cccc(-c2ccc3c(c2)C(C)(C)OC(=O)N3)c1 [Example 6, 6-(3-Methoxy-phenyl)-4,4dimethyl-1,4-dihydro-benzo[d][1,3]-oxazin-2-one]	164 to 165 °C
CC1(C)OC(=O)Nc2ccc(-c3ccccc3Cl)cc21 [Example 7, 6-(2-Chloro-phenyl)-4,4-dimethyl-1,4-dihydro-benzo[d][1,3]oxazin-2-one]	181 to 182 °C
CC1(C)OC(=O)Nc2ccc(-c3ccc(Cl)cc3)cc21 [Example 8, 6-(4-Chloro-phenyl)-4,4-dimethyl-1,4-dihydro-benzo[d][1,3]-oxazin-2-one]	255 to 257 °C
CC1OC(=O)Nc2ccc(-c3cccc(Cl)c3)cc21 (stereo not shown) [Example 9, 6-(3-Chloro-phenyl)-4-methyl-1,4-dihydro-benzo[d][1,3]oxazin-2-one]	155 to 156 °C
CCC1OC(=O)Nc2ccc(-c3cccc(Cl)c3)cc21 (stereo not shown) [Example 10, 6-(3-Chloro-phenyl)-4-ethyl-1,4-dihydro-benzo[d][1,3]oxazin-2-one]	146 to 148 °C
O=C1Nc2ccc(-c3cccc(Cl)c3)cc2C(c2ccccc2)O1 (stereo not shown) [Example 11, 6-(3-Chloro-phenyl)-4-phenyl-1,4-dihydro-benzo [d][1,3]oxazin-2-one]	177 to 178 °C
CC1(C)OC(=O)Nc2ccc(-c3cccc([N+](=O)[O-])c3)cc21 [Example 13, 4,4Dimethyl6-(3-nitrophenyl)-1,4dihydrobenzo[d][1,3]oxazin-2-one]	244 to 245 °C
CCC1(CC)NC(=O)Oc2ccc(-c3cccc(Cl)c3)cc21 [Example 25, 6-(3-Chlorophenyl)-4,4-diethyl-1,4-dihydrobenzo[d][3,1]oxazin-2-one]	150 to 151 °C
O=C1Nc2ccc(-c3cccc(Cl)c3)cc2C2(CCCC2)O1 [Example 31, 6-(3-Chlorophenyl)-spiro-[4H-3,1-benzoxazine-4,1′-cyclopentane]-2(1H)-one]	140 to 145 °C
O=C1Nc2ccc(-c3cccc([N+](=O)[O-])c3)cc2C2(CCCCC2)O1 [Example 32, 6-(3—Nitrophenyl)-spiro[4H-3,1-benzoxazine-4,1′-cyclohexan]-2(1H)-one]	245 to 246 °C
C=CCC1(C)OC(=O)Nc2ccc(-c3cccc(Cl)c3)cc21 (stereo not shown) [Example 36, 4-Allyl-6-(3-chlorophenyl)-4-methyl-1,4-dihydro-benzo[d][1,3]oxazin-2-one]	128 to 129 °C
CC1(c2ccccc2)OC(=O)Nc2ccc(-c3cccc(Cl)c3)cc21 (stereo not shown) [Example 39, 6-(3-Chlorophenyl)-4-methyl-4-phenyl-1,4dihydro-benzo[d][1,3]oxazin-2-one]	179 to 180 °C
CC1(Cc2ccccc2)OC(=O)Nc2ccc(-c3cccc(Cl)c3)cc21 (stereo not shown) [Example 40, 4-Benzyl-6-(3-chloro-phenyl)-4-methyl-1,4-dihydro-benzo[d][1,3]oxazin-2-one]	187 to 188 °C
CC1(C2CC2)OC(=O)Nc2ccc(-c3cccc(Cl)c3)cc21 (stereo not shown) [Example 41, 6(3-Chloro-phenyl)-4-cyclopropyl-4-methyl-1,4-dihydro-benzo [d][1,3]oxazin-2-one]	158 to 159 °C
CC#CC1(C2CC2)OC(=O)Nc2ccc(-c3cccc(Cl)c3)cc21 (stereo not shown) [Example 42, 6-(3-Chloro-phenyl)-4-cyclopropyl-4-propyn-1-yl-1,4-dihydro-benzo [d][1,3]oxazin-2-one]	178 to 179 °C
CC#CC1(C#CC)OC(=O)Nc2ccc(-c3cccc(Cl)c3)cc21 [Example 44, 6(3-Chloro-phenyl)-4,4dipropyn-1-yl-1,4dihydrobenzo[d][1,3]oxazin-2-one]	151 °C (dec.)
CN1C(=O)OC(C)(C)c2cc(-c3cc(F)cc(Br)c3)ccc21 [Example 45, 6-(3-Bromo-5fluorophenyl)-1,4,4-trimethyl-1,4-dihydrobenzo[d][1,3]oxazin-2-one]	157 to 158 °C
COc1cccc(-c2ccc3c(c2)NC(=O)OC3(C)C)c1 [Example 49, 7-(3-Methoxy-phenyl)-4,4-dimethyl-1,4-dihydro-benzo[d][1,3]-oxazin-2-one]	167 to 168 °C
CC1(C)OC(=O)Nc2ccc(-c3cccc(C(=O)c4ccccc4)c3)cc21 [Example 51, 6-(3-Benzoyl-phenyl)-4,4-dimethyl-1,4dihydro-benzo[d][1,3]-oxazin-2-one]	156 to 157 °C
CC1(C)OC(=O)Nc2ccc(-c3cccc(-c4nnn[nH]4)c3)cc21 [Example 52, 4,4-Dimethyl-6-[3-(1H-tetrazol-5-yl)-phenyl]-1,4dihydrobenzo[d][1,3]oxazin-2-one]	238 to 240 °C

SMILES	melting point
N#Cc1cc(-c2ccc3c(c2)C(C2CC2)(C2CC2)OC(=O)N3)cs1 [Example 53, 4-(4,4-Dicyclopropyl-2-oxo-1,4-dihydro-2H-benzo[d][1,3]oxazin-6yl)-thiophene-2-carbonitrile]	244 to 245 °C
CC1(C)OC(=O)Nc2ccc(-c3cc(Br)cc(OC(F)(F)F)c3)cc21 [Example 57, 6-(3-Bromo-5-trifluoromethoxy-Phenyl)-4,4-dimethyl-1,4-dihydrobenzo[d][1,3]-oxazin-2-one]	214 to 216 °C
CC1(C)OC(=O)Nc2ccc(-c3cc(C#N)cc(OC(F)(F)F)c3)cc21 [Example 59, 3-(4,4-Dimethyl-2-oxo-1,4-dihydro-2H-benzo[d][1,3]oxazin-6-yl)-5-trifluoromethoxy-benzonitrile]	227 to 228 °C
CC1(C)OC(=O)Nc2ccc(-c3cc(F)cc(F)c3)cc21 [Example 60, 6-(3,5-difluoro-phenyl)-4,4-dimethyl-1,4-dihydrobenzo-[d][1,3]oxazin-2-one]	218 to 219 °C
CC1(C)OC(=O)Nc2ccc(-c3cc(C(F)(F)F)cc(C(F)(F)F)c3)cc21 [Example 62, 6-(3,5-Bis-trifluoromethyl-phenyl)-4,4-dimethyl-1,4-dihydrobenzo[d][1,3]oxazin-2-one]	258 to 260 °C
COc1cc(C#N)cc(-c2ccc3c(c2)C(C)(C)OC(=O)N3)c1 [Example 63, 3-(4,4-Dimethyl-2-oxo-1,4-dihydro-2H-benzo[d][1,3]oxazin-6-yl)-5-methoxy-benzonitrile]	254 to 255 °C
CCOC(OCC)N1C(=O)OC(C)(C)c2cc(-c3cc(F)cc(C#N)c3)ccc21 [Example 66, 3(1-Diethoxymethyl-4,4-dimethyl-2-oxo-1,4-dihydro-2H-benzo[d][1,3]oxazin-6-yl)-5-fluoro-benzonitrile]	123 to 124 °C
COCN1C(=O)OC(C)(C)c2cc(-c3cc(F)cc(C#N)c3)ccc21 [Example 67, 3-Fluoro-5(1-methoxymethyl-4,4-dimethyl-2-oxo-1,4-dihydro-2H-benzo[d][1,3]oxazin-6-yl)-benzonitrile]	169 to 171 °C
CC1(C)OC(=O)Nc2c(F)cc(-c3ccc(F)c(Cl)c3)cc21 [Example 71, 6-(3-Chloro-4-fluoro-phenyl)-8-fluoro-4,4-dimethyl-1,4-dihydrobenzo[d][1,3]-oxazin-2-one]	246 to 248 °C
C#Cc1cccc(-c2ccc3c(c2)C(C)(C)OC(=O)N3)c1 [Example 74, 6-(3-Ethynyl-phenyl)-4,4-dimethyl-1,4dihydro-benzo[d][1,3]-oxazin-2-one]	171 to 172 °C
CC1(C)OC(=O)Nc2ccc(-c3cc(Cl)cc(C#N)c3)cc21 [Example 78, 3-Chloro-5(4,4-dimethyl-2-oxo-1,4-dihydro-2H-benzo[d][1,3]oxazin-6-yl)-benzonitrile]	256 to 257 °C
CC1(C)OC(=O)Nc2ccc(-c3cccc(-c4nccs4)c3)cc21 [Example 81, 4,4-Dimethyl-6(3-thiazol-2-yl-phenyl)-1,4-dihydro-benzo[d][1,3]oxazin-2-one]	223 to 224 °C
COc1cc(F)cc(-c2ccc3c(c2)C(C)(C)OC(=O)N3)c1 [Example 82, 6-(3-Fluoro-5-methoxy-phenyl)-4,4-dimethyl-1,4-dihydro-benzo[d][1,3]oxazin-2-one]	181 to 182 °C
CC(C)(C)OC(=O)N1C(=O)OC(C)(C)c2cc(-c3cc(F)cc(C#N)c3)ccc21 [Example 86, 6-(3-Cyano-5fluoro-phenyl)-4,4-dimethyl-2oxo-4H-benzo[d][1,3]oxazine-1-carboxylic acid tert-butyl ester]	139 to 140 °C
CC1(C)OC(=O)Nc2c(F)cc(-c3csc(C#N)c3)cc21 [Example 88, 4-(8-Fluoro-4,4-dimethyl-2-oxo-1,4-dihydro-2H-benzo[d][1,3]oxazin-6-yl)-thiophene-2-carbonitrile]	250 to 251 °C
CC1(C)OC(=O)Nc2c(F)cc(-c3cc(F)cc(C#N)c3)cc21 [Example 89, 3-Fluoro-5-(8-fluoro-4,4dimethyl-2-oxo-1,4-dihydro-2H-benzo[d][1,3]oxazin-6-yl)-benzonitrile]	256 to 257 °C
CC1(C)OC(=O)Nc2ccc(-c3cc(C#N)cs3)cc21 [Example 90, 5-(4,4-Dimethyl-2-oxo-1,4-dihydro-2H-benzo[d][1,3]oxazin-6-yl)thiophene-3-carbonitrile]	255 to 260 °C
CC(C)(C)OC(=O)n1c(-c2ccc3c(c2)C(C)(C)OC(=O)N3)ccc1[N+](=O)[O-] [Example 95, 2-(4,4Dimethyl-2-oxo-1,4-dihydro-2H-benzo[d][1,3]oxazin-6-yl)-5-nitro-pyrrole-1-carboxylic acid tert-butyl ester]	125 °C
CC1(C)OC(=O)Nc2ccc(-c3ccc[nH]3)cc21 [Example 97, 4,4-Dimethyl-6-(1H-pyrrol-2yl)-1,4-dihydro-benzo[d][1,3]-oxazin-2one]	202 °C (dec.)
Cn1cccc1-c1ccc2c(c1)C(C)(C)OC(=O)N2 [Example 98, 4,4-Dimethyl-6-(1-methyl-1H-pyrrol-2-yl)-1,4-dihydro-benzo[d][1,3]oxazin-2-one]	230 °C
Cn1c(-c2ccc3c(c2)C(C)(C)OC(=O)N3)ccc1[N+](=O)[O-] [Example 99, 4,4-Dimethyl-6-(1-methyl-5-nitro-1H-pyrrol-2-yl)-1,4-dihydro-benzo [d][1,3]oxazin-2-one]	180 to 185 °C
